Data published in patent publication US20240002391A1, “4-ALKOXYPYRROLO[2,1-F][1,2,4]TRIAZINES AND PREPARATION AND USES THEREOF” (BioSplice Therapeutics, Inc., priority 2022, published 2024).

The compounds below were run against recombinant DYRK1A kinase (Homo sapiens (Human), UniProt Q13627) (assay: DYRK1A kinase assay (Ser/Thr 18 peptide Z-lyte FRET)). Conditions: DYRK1A kinase activity, Z-lyte Ser/Thr 18 peptide, 15 μM ATP; method text calls the value IC50; read-out: EC50 (the source's name).
Format: biochemical
Procedure, shortened: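 Z-lyte FRET read-out: coumarin (Em 455) over fluorescein (Em 520) emission ratio, converted to percent phosphorylation after 1 h development. Reaction: 0.25 μg/mL kinase, 15 μM ATP, 4 μM peptide, 1 h RT with compound, duplicate wells. IC50s fitted by non-linear regression.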

Row | IC50 | SMILES
1 | 0.4 nM | COc1nc(N[C@H]2C[C@@](C)(NC(C)=O)C2)nn2ccc(-c3ccc4nnn(CC(F)(F)F)c4c3)c12 [Compound 905, N-((1s,3s)-3-((4-Methoxy-5-(1-(2,2,2-trifluoroethyl)-1H-benzo[d][1,2,3]triazol-6-yl)pyrrolo[2,1-f][1,2,4]triazin-2-yl)amino)-1-methylcyclobutyl)acetamide]
2 | 7.7 nM | COc1nc(N[C@H]2CC[C@@](C)(O)CC2)nn2ccc(-c3ccc4nnn(CC(F)(F)F)c4c3)c12 [Compound 910, (1s,4s)-4-((4-Methoxy-5-(1-(2,2,2-trifluoroethyl)-1H-benzo[d][1,2,3]triazol-6-yl)pyrrolo[2,1-f][1,2,4]triazin-2-yl)amino)-1-methylcyclohexan-1-ol]
3 | 2.1 nM | COc1nc(N[C@H]2CC[C@](C)(O)CC2)nn2ccc(-c3ccc4nnn(CC(F)(F)F)c4c3)c12 [Compound 911, (1r,4r)-4-((4-Methoxy-5-(1-(2,2,2-trifluoroethyl)-1H-benzo[d][1,2,3]triazol-6-yl)pyrrolo[2,1-f][1,2,4]triazin-2-yl)amino)-1-methylcyclohexan-1-ol]
4 | 0.8 nM | COc1nc(N[C@@H]2CN(C(C)=O)C[C@@H]2F)nn2ccc(-c3ccc4nnn(CC(F)(F)F)c4c3)c12 [Compound 912, 1-((3S,4R)-3-Fluoro-4-((4-methoxy-5-(1-(2,2,2-trifluoroethyl)-1H-benzo[d][1,2,3]triazol-6-yl)pyrrolo[2,1-f][1,2,4]triazin-2-yl)amino)pyrrolidin-1-yl)ethan-1-one]
5 | 1.4 nM | COc1nc(N[C@H]2CCN(C(C)=O)C[C@H]2F)nn2ccc(-c3ccc4nnn(CC(F)(F)F)c4c3)c12 [Compound 916, 1-((3R,4S)-3-Fluoro-4-((4-methoxy-5-(1-(2,2,2-trifluoroethyl)-1H-benzo[d][1,2,3]triazol-6-yl)pyrrolo [2,1-f][1,2,4]triazin-2-yl)amino)piperidin-1-yl)ethan-1-one]
6 | 1.4 nM | COc1nc(N[C@@H]2CCN(C(C)=O)CC2(F)F)nn2ccc(-c3ccc4nnn(CC(F)(F)F)c4c3)c12 [Compound 921, (R)-1-(3,3-Difluoro-4-((4-methoxy-5-(1-(2,2,2-trifluoroethyl)-1H-benzo[d]1[1,2,3]triazol-6-yl)pyrrolo[2,1-f][1,2,4]triazin-2-yl)amino)piperidin-1-yl)ethan-1-one]
7 | 0.9 nM | COc1nc(N[C@@H]2CCN(C3COC3)CC2(F)F)nn2ccc(-c3ccc4nnn(CC(F)(F)F)c4c3)c12 [Compound 922, (R)—N-(3,3-Difluoro-1-(oxetan-3-yl)piperidin-4-yl)-4-methoxy-5-(1-(2,2,2-trifluoroethyl)-1H-benzo[d][1,2,3]triazol-6-yl)pyrrolo[2,1-f][1,2,4]triazin-2-amine]
8 | 2.1 nM | COc1nc(NCC(C)(C)F)nn2ccc(-c3cnc4nccn4c3)c12 [Compound 924, N-(2-Fluoro-2-methylpropyl)-5-(imidazo[1,2-a]pyrimidin-6-yl)-4-methoxypyrrolo[2,1-f][1,2,4]triazin-2-amine]
9 | 5.6 nM | COCC[C@@H](C)Nc1nc(OC)c2c(-c3cnc4nccn4c3)ccn2n1 [Compound 926, (R)-5-(Imidazo[1,2-a]pyrimidin-6-yl)-4-methoxy-N-(4-methoxybutan-2-yl)pyrrolo[2,1-f][1,2,4]triazin-2-amine]
10 | 1.2 nM | COc1nc(N[C@H](C)C2COC2)nn2ccc(-c3cnc4nccn4c3)c12 [Compound 927, (R)-5-(Imidazo[1,2-a]pyrimidin-6-yl)-4-methoxy-N-(1-(oxetan-3-yl)ethyl)pyrrolo[2,1-f][1,2,4]triazin-2-amine]
11 | 2 nM | COc1nc(N[C@@H](C)C2COC2)nn2ccc(-c3cnc4nccn4c3)c12 [Compound 928, (S)-5-(Imidazo[1,2-a]pyrimidin-6-yl)-4-methoxy-N-(1-(oxetan-3-yl)ethyl)pyrrolo[2,1-f][1,2,4]triazin-2-amine]
12 | 19.8 nM | COc1nc(N[C@@H]2CC[C@@H]2OC)nn2ccc(-c3cnc4nccn4c3)c12 [Compound 929, 5-(Imidazo[1,2-a]pyrimidin-6-yl)-4-methoxy-N-((1R,2S)-2-methoxycyclobutyl)pyrrolo[2,1-f][1,2,4]triazin-2-amine]
13 | 6.9 nM | COc1nc(N[C@@H]2CC[C@H]2OC)nn2ccc(-c3cnc4nccn4c3)c12 [Compound 930, 5-(Imidazo[1,2-a]pyrimidin-6-yl)-4-methoxy-N-((1R,2R)-2-methoxycyclobutyl)pyrrolo[2,1-f][1,2,4]triazin-2-amine]
14 | 1.5 nM | CCO[C@H]1C[C@@H](Nc2nc(OC)c3c(-c4cnc5nccn5c4)ccn3n2)C1 [Compound 931, N-(cis-3-Ethoxycyclobutyl)-5-(imidazo[1,2-a]pyrimidin-6-yl)-4-methoxypyrrolo[2,1-f][1,2,4]triazin-2-amine]
15 | 1.6 nM | COc1nc(N[C@H]2C[C@@](C)(NC(C)=O)C2)nn2ccc(-c3cnc4nccn4c3)c12 [Compound 934, N-((1s,3s)-3-((5-(Imidazo[1,2-a]pyrimidin-6-yl)-4-methoxypyrrolo[2,1-f][1,2,4]triazin-2-yl)amino)-1-methylcyclobutyl)acetamide]
16 | 1.2 nM | COc1nc(N[C@H]2C[C@](C)(NC(C)=O)C2)nn2ccc(-c3cnc4nccn4c3)c12 [Compound 935, N-((1r,3r)-3-((5-(Imidazo[1,2-a]pyrimidin-6-yl)-4-methoxypyrrolo[2,1-f][1,2,4]triazin-2-yl)amino)-1-methylcyclobutyl)acetamide]

Row | IC50 | SMILES
17 | 18.9 nM | COc1nc(N[C@@H]2CCC[C@@H]2O)nn2ccc(-c3cnc4nccn4c3)c12 [Compound 942, (1S,2R)-2-((5-(Imidazo[1,2-a]pyrimidin-6-yl)-4-methoxypyrrolo[2,1-f][1,2,4]triazin-2-yl)amino)cyclopentan-1-ol]
18 | 1.5 nM | COc1nc(NC2CCCCC2)nn2ccc(-c3cnc4nccn4c3)c12 [Compound 944, N-Cyclohexyl-5-(imidazo[1,2-a]pyrimidin-6-yl)-4-methoxypyrrolo[2,1-f][1,2,4]triazin-2-amine]
19 | 2.2 nM | COc1nc(NC2CCC(C)(C)CC2)nn2ccc(-c3cnc4nccn4c3)c12 [Compound 947, N-(4,4-Dimethylcyclohexyl)-5-(imidazo[1,2-a]pyrimidin-6-yl)-4-methoxypyrrolo[2,1-f][1,2,4]triazin-2-amine]
20 | 0.4 nM | COc1nc(NC2CCC(C)(C#N)CC2)nn2ccc(-c3cnc4nccn4c3)c12 (stereo not shown) [Compound 948, 4-((5-(Imidazo[1,2-a]pyrimidin-6-yl)-4-methoxypyrrolo[2,1-f][1,2,4]triazin-2-yl)amino)-1-methylcyclohexane-1-carbonitrile]
21 | 0.9 nM | COc1nc(N[C@H]2CC[C@](C)(OC)CC2)nn2ccc(-c3cnc4nccn4c3)c12 [Compound 954, 5-(Imidazo[1,2-a]pyrimidin-6-yl)-4-methoxy-N-((1r,4r)-4-methoxy-4-methylcyclohexyl)pyrrolo[2,1-f][1,2,4]triazin-2-amine]
22 | 4.3 nM | COc1nc(N[C@@H]2CCNCC2(F)F)nn2ccc(-c3cnc4nccn4c3)c12 [Compound 964, (R)—N-(3,3-Difluoropiperidin-4-yl)-5-(imidazo[1,2-a]pyrimidin-6-yl)-4-methoxypyrrolo[2,1-f][1,2,4]triazin-2-amine]
23 | 2.8 nM | COc1nc(N[C@@H]2CCN(C3COC3)CC2(F)F)nn2ccc(-c3cnc4nccn4c3)c12 [Compound 968, (R)—N-(3,3-Difluoro-1-(oxetan-3-yl)piperidin-4-yl)-5-(imidazo[1,2-a]pyrimidin-6-yl)-4-methoxypyrrolo[2,1-f][1,2,4]triazin-2-amine]
24 | 7.6 nM | COc1nc(N[C@@H]2CCCOC2)nn2ccc(-c3cnc4nccn4c3)c12 [Compound 975, (R)-5-(Imidazo[1,2-a]pyrimidin-6-yl)-4-methoxy-N-(tetrahydro-2H-pyran-3-yl)pyrrolo[2,1-f][1,2,4]triazin-2-amine]
25 | 2.5 nM | COc1nc(NC2CC3CC3C2)nn2ccc(-c3cnc4nccn4c3)c12 (stereo not shown) [Compound 976, N-(Bicyclo[3.1.0]hexan-3-yl)-5-(imidazo[1,2-a]pyrimidin-6-yl)-4-methoxypyrrolo[2,1-f][1,2,4]triazin-2-amine]
26 | 1.8 nM | COc1nc(NC2CCC3(CC2)CC3)nn2ccc(-c3cnc4nccn4c3)c12 [Compound 977, 5-(Imidazo[1,2-a]pyrimidin-6-yl)-4-methoxy-N-(spiro[2.5]octan-6-yl)pyrrolo[2,1-f][1,2,4]triazin-2-amine]
27 | 2.4 nM | COc1nc(NC23CCC(O)(CC2)C3)nn2ccc(-c3cnc4nccn4c3)c12 [Compound 978, 4-((5-(Imidazo[1,2-a]pyrimidin-6-yl)-4-methoxypyrrolo[2,1-f][1,2,4]triazin-2-yl)amino)bicyclo[2.2.1]heptan-1-ol]
28 | 2.9 nM | COc1nc(N[C@H]2CC[C@](C)(O)CC2)nn2cc(F)c(-c3cnc4nccn4c3)c12 [Compound 996, (1r,4r)-4-((6-Fluoro-5-(imidazo[1,2-a]pyrimidin-6-yl)-4-methoxypyrrolo[2,1-f][1,2,4]triazin-2-yl)amino)-1-methylcyclohexan-1-ol]
29 | 0.5 nM | CNC(=O)[C@]1(C)C[C@@H](Nc2nc(OC)c3c(-c4ccc5ncccc5c4)ccn3n2)C1 [Compound 1038, trans-3-((4-Methoxy-5-(quinolin-6-yl)pyrrolo[2,1-f][1,2,4]triazin-2-yl)amino)-N,1-dimethylcyclobutane-1-carboxamide]
30 | 1.7 nM | COc1nc(N[C@H]2C[C@](C)(C(=O)NC3CC3)C2)nn2ccc(-c3ccc4ncccc4c3)c12 [Compound 1039, trans-N-Cyclopropyl-3-((4-methoxy-5-(quinolin-6-yl)pyrrolo[2,1-f][1,2,4]triazin-2-yl)amino)-1-methylcyclobutane-1-carboxamide]
31 | 2.7 nM | COc1nc(N[C@H]2C[C@](C)(C(=O)NC3(C)CCC3)C2)nn2ccc(-c3ccc4ncccc4c3)c12 [Compound 1040, trans-3-((4-Methoxy-5-(quinolin-6-yl)pyrrolo[2,1-f][1,2,4]triazin-2-yl)amino)-1-methyl-N-(1-methylcyclobutyl)cyclobutane-1-carboxamide]
